Assay results as given in patent US20100173937A1, “USE OF TETRAKIS-QUATERNARY AMMONIUM SALTS AS PAIN MODULATING AGENTS” (University of Kentucky Research Foundation, priority 2008, published 2010).

Experiments:
[1] = tested on: mechanical hyperalgesia in CCI rats; test: rat chronic constriction nerve injury (CCI) model of neuropathic pain, paw pressure test; type: in vivo; conditions: intraperitoneal, 3.6-3600 μg/kg, 15-120 minutes after injection, FIGS. 3 and 4
Experimental: A rat model of neuropathic pain (the chronic constriction nerve injury model; CCI) was used. Unilateral peripheral mononeuropathy was produced on the left hind limb according to the method described by Bennett and Xie (1988). Under pentobarbital anesthesia (40 mg/kg, IP) ligation of the siatic nerve and sham surgery were performed in each rat on the left and right hind paws, respectively. Proximal to the sciatice trifurcation, the nerve (about 7 mm) was freed from adhering tissue and four loose ligatures were tied around the nerve (1 mm apart) using 4.0 chromic catgut, barely constricting the diameter of the nerve. In sham surgery, the right sciatic nerve was exposed using the same procedure, but the nerve was not ligated. The incision was closed in layers with silk thread 3.0. […] No severe motor impairment was observed.
The presence of a decreased threshold to mechanical noxious stimuli (mechanical hyperalgesia) was evaluated by the Randal and Selitto (1957) method (paw pressure test) in CCI rats. The hind paw was placed between a flat surface and a blunt pointer in the Basile Analgesimeter (UGO Basile, Italy) and increasing pressure (32 g/s) was applied to the dorsal side of the paw. Vocalization was used as the end point (vocalization threshold, VT, g). […] Responses were assessed prior to (baseline, taken twice) and at 15, 30, 45, 60 and 120 minutes after injection. […]

[2] = tested on: formalin-induced flinching; test: rat model of tonic inflammatory pain (the formalin test); type: in vivo; conditions: intraperitoneal, 3.6-3600 μg/kg, 15 minutes prior to formalin, phase 1 and 2, FIGS. 1 and 2
Experimental: A rat model of tonic inflammatory pain (the formalin test) was used in this study (Wheeler-Aceto and Cowan, 1991). Fifty μl of formalin (5%) was injected subcutaneously (SC) into the dorsal surface of the left hind paw. This procedure typically produces a biphasic behavioral response consisting of flinching, lifting and licking. The first phase (0-10 minutes) results from direct stimulation of nociceptors (nociceptive pain) whereas the second phase (20-60 minutes) is thought to involve central sensitization. Rats (3/dose) were pretreated 15 minutes prior to formalin (SC) injection with ZZ-204G (3.6-3600 μg/kg) administered by the IP route. ZZ-204G is as below:
Saline served as control. Incidences of formalin-induced flinching were counted continuously in 5 minute intervals for 60 minutes. Each rat received only one treatment.

C(#Cc1cc(C#CCCC[n+]2cccc(-c3ccccc3)c2)c(C#CCCC[n+]2cccc(-c3ccccc3)c2)cc1C#CCCC[n+]1cccc(-c2ccccc2)c1)CCC[n+]1cccc(-c2ccccc2)c1.[Br-].[Br-].[Br-].[Br-] [ZZ-204G]
antihyperalgesic effect in the rodent chronic constriction nerve injury model (vocalization threshold, paw pressure test) [1]: antihyperalgesic effect
analgesic effect in the rodent formalin tonic inflammatory pain model (formalin-induced flinching) [2]: analgesic effect
